The structures appear in SMILES notation.

This note sets out measurements from US20240285555A1, “COMPOSITIONS FOR THE TREATMENT OF COPPER DEFICIENCY AND METHODS OF USE” (priority 2018, published 2024).

For assay [1], the system named is Ctr1^−/− H9c2 cardiomyocytes. The assay is described as follows: COX1 and SOD1 levels in Ctr1 knockout H9c2 cardiomyocytes (Western blot). Conditions: 5 nM ES. It counts as cell-based, rat. The procedure:
FIGS. 4A and 4B illustrates the effects of ES supplementation in increasing copper levels (A) and cytochrome c oxidase subunit, COX1, and superoxide dismutase, SOD1 levels (B) in Ctrl1^−/− H9c2 rat cardiomyocytes. ATP5A is a subunit of mitochondrial ATP synthase and was used as a loading control for the Western blotting experiment.
Mammalian Cell Culture. The human control MCH46 and SCO2 patient fibroblasts as well as the rat H9c2 control and Ctr1^−/− cardiomyocytes were cultured in high glucose Dulbecco's modified Eagle's medium (DMEM) supplemented with 10% fetal bovine serum (Sigma) and 1 mM sodium pyruvate (Life Technologies). The mouse embryonic fibroblasts were cultured in DMEM 10% FBS, 1 mM sodium pyruvate, 1× minimum essential medium non-essential amino acids (MEM NEAA; Life Technologies 11140), 50 μg/mL uridine, and 1× Pen Strep Glutamine (Life Technologies 10378). All cell lines were cultured under 5% CO2 at 37° C. and were treated with indicated concentrations of ES for 3-6 days before harvesting. Whole cell protein was extracted in lysis buffer (BP-115, Boston BioProducts) supplemented with protease inhibitor cocktail (Roche Diagnostics) and the protein concentrations were determined by BCA assay (Thermo Scientific).
Construction of a Ctr1 Knockout Rat H9c2 Cell Line. […]

For the next assay, the system named is coa6Δ cells. The assay can be described thus: Cellular and mitochondrial copper measurements by ICP-MS in yeast. It counts as cell-based, Saccharomyces cerevisiae. The conditions noted are these: 20 nM ES. The procedure:
FIGS. 2A, 2B, 2C, 2D and 2E illustrate elesclomol supplementation rescues CcO assembly defects by restoring mitochondrial copper levels of yeast S. cerevisiae coa6Δ cells. FIGS. 2A-2C illustrate bioenergetic parameters of wild type (WT), coa6Δ, and coa6Δ cells supplemented with 20 nM ES were cultured in YP galactose medium until early stationary growth phase. […] Error bars represent mean±SD (n=3, two-tailed unpaired Student's t-test *p<0.05, **p<0.005).
Cellular and Mitochondrial Copper Measurements. Cellular and mitochondrial copper levels were measured using the Perkin Elmer DRC II Inductively Coupled Plasma-Mass Spectrometer (ICP-MS). Intact yeast cells and isolated mitochondrial pellets were washed with 100 μM EDTA containing water, weighed, and digested with 40% nitric acid (TraceSELECT, Sigma) at 90° C. for 18 h. Samples were diluted in ultrapure metal-free water (TraceSELECT, Sigma) and analyzed by ICP-MS. Copper standard solutions were prepared by appropriate dilutions of commercially available mixed metal standards (BDH Aristar Plus). Copper concentrations in mammalian cells were also measured by ICP-MS.
ES scavenges copper from the culture medium, enters the cell as an ES-copper complex, and selectively accumulates in mitochondria where it dissociates from copper. […]

Turning to `CN(NC(=O)CC(=O)NN(C)C(=S)c1ccccc1)C(=S)c1ccccc1` [ES, elesclomol], the “levels of COX1 and SOD1” value in assay [1] was “restores”. Also, in the assay with coa6Δ cells, the mitochondrial copper levels result was “almost complete rescue” and the “total cellular copper levels” value was “moderately increased”.
